In patent US7605156B2, “Methods for the use of inhibitors of cytosolic phospholipase A2” (Wyeth, priority 2001, dated 2009):
pIC50: −log10 of the molar value.

Tests used:
B6 mice = assay: Experimental autoimmune encephalomyelitis (EAE), animal model of multiple sclerosis; format: in vivo; conditions: orally, 100 mg/kg, twice/day
Experimental: Six groups of B6 mice were immunized with MOG/CFA and injected with pertussis toxin to induce experimental autoimmune encephalomyelitis (EAE), an animal model of Multiple sclerosis. […] Another three groups of mice were treated with vehicle, Compound A or Compound B starting on the day of EAE onset (day 15) (orally, 100 mg/kg, twice/day). […] The results are shown in FIG. 1, wherein mean clinical score is a mean of clinical evaluation of each animal for that particular day. Animals are scored as follows: • 0 no clinical signs of EAE (no paralysis) • 1—paralysis of tail • 2—paralysis of tail and partial hind leg paralysis • 3—paralysis of tail And complete hind leg paralysis • 4—paralysis of tail, complete hind leg paralysis and a partial front leg paralysis • 5—moribund animal (all four limbs paralyzed, lack of responsiveness, these mice were immediately euthanized).

cPLA2 = target: T1, cPLA2 (Homo sapiens, UniProt P47712); assay: Coumarine assay (hydrolysis of 7-hydroxycoumarinyl 6-heptenoate); format: biochemical; conditions: 60 μM 7-hydroxycoumarinyl 6-heptenoate, pH 7.5; read-out: Coumarin IC50
T1 sequence (P47712 1-749): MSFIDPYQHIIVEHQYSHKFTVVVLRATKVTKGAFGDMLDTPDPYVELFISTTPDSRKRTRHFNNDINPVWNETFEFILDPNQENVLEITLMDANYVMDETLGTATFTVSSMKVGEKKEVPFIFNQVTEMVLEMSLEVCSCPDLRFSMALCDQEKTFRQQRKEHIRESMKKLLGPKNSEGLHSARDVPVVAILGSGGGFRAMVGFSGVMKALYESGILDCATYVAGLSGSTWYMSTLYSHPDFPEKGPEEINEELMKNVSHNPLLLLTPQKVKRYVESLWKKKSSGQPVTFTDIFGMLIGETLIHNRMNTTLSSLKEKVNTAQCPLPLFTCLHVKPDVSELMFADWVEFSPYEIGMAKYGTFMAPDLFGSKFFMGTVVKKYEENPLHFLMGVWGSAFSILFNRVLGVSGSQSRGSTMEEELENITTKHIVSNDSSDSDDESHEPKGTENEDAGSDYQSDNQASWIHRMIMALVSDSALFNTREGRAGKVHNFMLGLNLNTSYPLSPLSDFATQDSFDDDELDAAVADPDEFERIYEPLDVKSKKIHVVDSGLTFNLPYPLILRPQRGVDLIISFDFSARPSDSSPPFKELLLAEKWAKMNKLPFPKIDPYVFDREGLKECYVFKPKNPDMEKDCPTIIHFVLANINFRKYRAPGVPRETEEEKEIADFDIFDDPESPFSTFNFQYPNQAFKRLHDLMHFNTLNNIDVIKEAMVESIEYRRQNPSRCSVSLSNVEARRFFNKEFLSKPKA

ApoE KO mice = assay: ApoE knockout mouse model of atherosclerosis; format: in vivo; conditions: 3.3 mg/g in chow, 20 weeks

Row | Molecule | pIC50 (cPLA2) | other results
1 | O=C(O)c1ccc(OCCc2c(CCNS(=O)(=O)Cc3ccc(Cl)c(Cl)c3)n(C(c3ccccc3)c3ccccc3)c3ccc(Cl)cc23)cc1 [Example 10, 4-{2-[1-Benzhydryl-5-chloro-2-(2-{[(3,4-dichlorobenzyl)sulfonyl]amino}-ethyl)-1H-indol-3-yl]ethoxy}benzoic acid] |  | EAE clinical score: prevention of EAE (B6 mice; from the day of immunization): prevent EAE; EAE clinical score: clinical severity of EAE (B6 mice; starting on the day of EAE onset (day 15)): reduce clinical severity of EAE
2 | O=C(O)c1ccc(CCCc2c(CCNS(=O)(=O)Cc3ccc(Cl)c(Cl)c3)n(C(c3ccccc3)c3ccccc3)c3ccc(Cl)cc23)cc1 [Example 44] |  | atherosclerotic plaque burden at the aortic sinus (ApoE KO mice): 282697±146462 μm^2; decrease of atherosclerotic plaque burden at the aortic sinus (ApoE KO mice; vs control animals, p<0.001): 45.6%
3 | 4-(3-{2-[2-({[2-(aminomethyl)phenyl]sulfonyl}amino)ethyl]-1-benzhydryl-5-chloro-1H-indol-3-yl}propyl)benzoic acid [Example 156] | 6.80 | 
4 | O=C(O)c1ccc(CCCc2c(CCNS(=O)(=O)c3ccc(Cl)cc3Cl)n(C(c3ccccc3)c3ccccc3)c3ccc(Cl)cc23)cc1 [Example 152, 4-{3-[1-benzhydryl-5-chloro-2-(2-{[(2,4-dichlorophenyl)sulfonyl]-amino}ethyl)-1H-indol-3-yl]propyl}benzoic acid] | 6.49 | 
5 | O=C(O)c1ccc(CCCc2c(CCNS(=O)(=O)c3ccccc3OCc3ccccc3)n(C(c3ccccc3)c3ccccc3)c3ccc(Cl)cc23)cc1 [Example 187, 4-(3-{1-Benzhydryl-2-[2-(2-benzyloxy-benzenesulfonylamino)-ethyl]-5-chloro-1H-indol-3-yl}-propyl)benzoic acid] | 6.70 | 
6 | O=C(O)c1ccc(OCCc2c(CCNS(=O)(=O)c3ccc(N4CCOCC4)nc3)n(C(c3ccccc3)c3ccccc3)c3ccc(Cl)cc23)cc1 [Example 179, 4-{2-[1-benzhydryl-5-chloro-2-(2-{[(6-morpholin-4-ylpyridin-3-yl)sulfonyl]amino}ethyl)-1H-indol-3-yl]ethoxy}benzoic acid] | 6.05 | 
7 | O=C(O)c1ccc(OCCc2c(CCNS(=O)(=O)Cc3cccc(C(F)(F)F)c3)n(C(c3ccccc3)c3ccccc3)c3ccc(Cl)cc23)cc1 [Example 12] | 3.82 | 
8 | Cc1nc(-c2ccc(S(=O)(=O)NCCc3c(CCOc4ccc(C(=O)O)cc4)c4cc(Cl)ccc4n3C(c3ccccc3)c3ccccc3)s2)cs1 [Example 177, 4-(2-{1-benzhydryl-5-chloro-2-[2-({[5-(2-methyl-1,3-thiazol-4-yl)thien-2-yl]sulfonyl}amino)ethyl]-1H-indol-3-yl}ethoxy)benzoic acid] | 6.05 | 

Continued, in another order:

Row | pIC50 (cPLA2) | Molecule | other results
9 | 6.49 | O=C(O)c1ccc(OCCc2c(CCNS(=O)(=O)Cc3ccc(Cl)c(Cl)c3)n(C(c3ccccc3)c3ccccc3)c3ccc(Cl)cc23)cc1F [Example 296, 4-{2-[1-benzhydryl-5-chloro-2-(2-{[(3,4-dichlorobenzyl)sulfonyl]amino}ethyl)-1H-indol-3-yl]ethoxy}-2-fluorobenzoic acid] | melting point: 117 to 119 °C
10 | 6.52 | O=C(O)c1ccc(OCCc2c(CCNS(=O)(=O)Cc3ccccc3Cl)n(C(c3ccccc3)c3ccccc3)c3ccc(Cl)cc23)cc1F [Example 297, 4-{2-[1-benzhydryl-5-chloro-2-(2-{[(2-chlorobenzyl)sulfonyl]amino}ethyl)-1H-indol-3-yl]ethoxy}-2-fluorobenzoic acid] | melting point: 132 to 135 °C
11 | 6.72 | CC(C)(Cc1ccc(S(=O)(=O)CCc2c(CCNS(=O)(=O)Cc3ccc(Cl)c(Cl)c3)n(C(c3ccccc3)c3ccccc3)c3ccc(Cl)cc23)cc1)C(=O)O [Example 298, 3-[4-({2-[1-benzhydryl-5-chloro-2-(2{[(3,4-dichlorobenzyl)sulfonyl]amino}ethyl)-1H-indol-3-yl]ethyl}sulfonyl)phenyl]-2,2-dimethylpropanoic acid] | melting point: 207 to 208 °C
12 | 6.74 | Cc1nn(C)c(C)c1S(=O)(=O)NCCc1c(CCCc2ccc(C(=O)O)cc2)c2cc(Cl)ccc2n1C(c1ccccc1)c1ccccc1 [Example 212, 4-{3-[1-benzhydryl-5-chloro-2-(2-{[(1,3,5-trimethyl-1H-pyrazol-4-yl)sulfonyl]amino}ethyl)-1H-indol-3-yl]propyl}benzoic acid] | 
13 | 6.28 | Cc1c(Cl)cc(F)cc1S(=O)(=O)NCCc1c(CCOc2ccc(C(=O)O)cc2)c2cc(Cl)ccc2n1C(c1ccccc1)c1ccccc1 [Example 262, 4-{2-[1-benzhydryl-5-chloro-2-(2-{[(3-chloro-5-fluoro-2-methylphenyl)sulfonyl]amino}ethyl)-1H-indol-3-yl]ethoxy}benzoic acid] | 
14 | 7.00 | CCc1cccc(CC)c1S(=O)(=O)NCCc1c(CCOc2ccc(C(=O)O)cc2)c2cc(Cl)ccc2n1C(c1ccccc1)c1ccccc1 [Example 272, 4-{2-[1-benzhydryl-5-chloro-2-(2-{[(2,6-diethylphenyl)sulfonyl]amino}ethyl)-1H-indol-3-yl]ethoxy}benzoic acid] | 
15 | 6.46 | O=C(O)c1ccc(CCCc2c(CCNS(=O)(=O)c3cccc(OC(F)(F)F)c3)n(C(c3ccccc3)c3ccccc3)c3ccc(Cl)cc23)cc1 [Example 201, 4-(3-{1-Benzhydryl-5-chloro-2-[2-(3-trifluoromethoxy-benzenesulfonylamino)-ethyl]-1H-indol-3-yl}-propyl)-benzoic acid] | 
16 | 6.60 | CSc1ccccc1S(=O)(=O)NCCc1c(CCCc2ccc(C(=O)O)cc2)c2cc(Cl)ccc2n1C(c1ccccc1)c1ccccc1 [Example 238] | 
17 | 6.49 | Cc1c(Cl)cc(F)cc1S(=O)(=O)NCCc1c(CCCc2ccc(C(=O)O)cc2)c2cc(Cl)ccc2n1C(c1ccccc1)c1ccccc1 [Example 263, 4-{3-[1-benzhydryl-5-chloro-2-(2-{[(3-chloro-5-fluoro-2-methylphenyl)sulfonyl]amino}ethyl)-1H-indol-3-yl]propyl}benzoic acid] | 
18 | 6.15 | O=C(O)c1ccc(OCCc2c(CCNS(=O)(=O)c3cccc(OC(F)(F)F)c3)n(C(c3ccccc3)c3ccccc3)c3ccc(Cl)cc23)cc1 [Example 198, 4-(2-{1-Benzhydryl-5-chloro-2-[2-(3-trifluoromethoxy-benzenesulfonylamino)-ethyl]-1H-indol-3-yl}-ethoxy)-benzoic acid] | 
19 | 6.60 | O=C(O)c1ccc(OCCc2c(CCNS(=O)(=O)c3ccccc3OC(F)(F)F)n(C(c3ccccc3)c3ccccc3)c3ccc(Cl)cc23)cc1 [Example 231] | 
